Data set [1] is described as follows: Assay 1. Stability in Simulated Gastric Fluid (SGF). The class given is in vitro ADME. The following applies: 1 μM, 37° C., SGF pH 1.6 with pepsin. Here is the method:
Assay 1. Stability of acylated active agents in Simulated Gastric Fluid (SGF). This assay was used to assess the stability of an acylated active agent in a stomach.
Medium was prepared by dissolving 2 g of sodium chloride in 0.6 L of ultrapure water (MilliQ®, Millipore Sigma, Darmstadt, Germany). The pH was adjusted to 1.6 with 1N hydrochloric acid, and the volume was then adjusted to 1 L with purified water.
60 mg FaSSIF powder (Biorelevant™, London, UK) were dissolved in 500 mL buffer (above). Pepsin was added (0.1 mg/mL) (Millipore Sigma, Darmstadt, Germany), and the solution was stirred. The resulting SGF media were used fresh for each experiment.
Test compounds were dissolved in DMSO stock to 1 mM. An aliquot of the DMSO stock solution was removed and diluted in the SGF Media in 15 mL falcon tubes to generate a compound concentration of 1 μM. A 1 mL aliquot was immediately removed and diluted once with 1 volume of acetonitrile for T0 timepoint. The mixture was sealed and mixed at 37° C. in an incubator. Aliquots (1 mL) were removed at regular intervals and immediately quenched by the addition of 1 volume of acetonitrile. The resulting samples were analyzed by LC/MS to determine degradation rates in SGF.

A short description of data set [2]: Assay 2. Stability in Simulated Intestinal Fluid (SIF). Particulars: 1 μM, 37° C., SIF pH 6.7 with pancreatin. In kind it is in vitro ADME. Summed up: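 Acylated compounds at 1 μM (from 1 mM DMSO stock) in fresh SIF: FaSSIF with pancreatin in pH 6.7 phosphate buffer, agitated at 37 °C. Aliquots from T0 onward quenched with 1 volume acetonitrile; LC/MS gives degradation rates.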

With `CCCC(=O)O[C@@H]1[C@@H](OC(=O)CCC)[C@@H](OC(=O)CCc2c[nH]c3ccccc23)OC[C@@H]1OC(=O)CCC` [Compound 114, (2R,3R,4S,5S)-4,5-bis(butanoyloxy)-2-{[3-(1H-indol-3-yl)propanoyl]oxy}oxan-3-yl Butanoate], in data set [1], the “Assay 1 (SGF) (% Remaining @ 1 hours)” value is recorded as “B (B: 25-75% of the tested compound remaining)”. The “Assay 2 (SIF) (% @ Remaining 4 hours)” value in data set [2] was “A (A: <25% of the tested compound remaining)”.
With `CCC(=O)OC[C@H]1OC(O)[C@H](OC(=O)CC)[C@@H](OC(=O)CC)[C@@H]1OC(=O)CC` (stereo partly drawn) [Compound 142, [(2R,3R,4S,5R)-6-hydroxy-3,4,5-tris(propanoyloxy)oxan-2-yl]methyl Propanoate], the “Assay 1 (SGF) (% Remaining @ 1 hours)” value in data set [1] is recorded as “C (C: >75% of the tested compound remaining)”. In addition, the “Assay 2 (SIF) (% @ Remaining 4 hours)” value in data set [2] is listed as “A (A: <25% of the tested compound remaining)”.
In the same order, the values of `CCC(=O)O[C@H]1[C@H](OC(=O)CC)[C@H](OC(=O)Cc2c[nH]c3ccccc23)O[C@@H](C)[C@H]1OC(=O)CC` [Compound 150, (2S,3S,4R,5R,6S)-2-{[2-(1H-indol-3-yl)acetyl]oxy}-6-methyl-4,5-bis(propanoyloxy)oxan-3-yl Propanoate] are “C (C: >75% of the tested compound remaining)” and “A (A: <25% of the tested compound remaining)”.
In the same order, the values of `CCC(=O)O[C@@H]1[C@H](OC(=O)CC)[C@H](C)OC(O)[C@H]1OC(=O)CC` (stereo partly drawn) [Compound 156, (3S,4R,5R,6S)-2-hydroxy-6-methyl-4,5-bis(propanoyloxy)oxan-3-yl Propanoate] are “C (C: >75% of the tested compound remaining)” and “A (A: <25% of the tested compound remaining)”.
In the same order, the values of `CCC(=O)OC1O[C@@H](C)[C@@H](OC(=O)CC)[C@@H](OC(=O)CC)[C@@H]1OC(=O)CC` (stereo partly drawn) [Compound 157, (3S,4R,5R,6S)-6-methyl-3,4,5-tris(propanoyloxy)oxan-2-yl Propanoate] are “C (C: >75% of the tested compound remaining)” and “A (A: <25% of the tested compound remaining)”.
`CCC(=O)O[C@@H]1[C@@H](OC(=O)CC)[C@@H](OC(=O)CC)CO[C@H]1O` [Compound 159, (3S,4S,5R,6R)-6-hydroxy-4,5-bis(propanoyloxy)oxan-3-yl Propanoate]: the “Assay 1 (SGF) (% Remaining @ 1 hours)” value in data set [1] is “C (C: >75% of the tested compound remaining)”. Further, in data set [2], the “Assay 2 (SIF) (% @ Remaining 4 hours)” value is on record as “B (B: 25-75% of the tested compound remaining)”.
Take `CCC(=O)O[C@@H]1[C@@H](OC(=O)CC)[C@H](OC(=O)CC)CO[C@H]1O` [Compound 161, (2R,3R,4S,5R)-2-hydroxy-4,5-bis(propanoyloxy)oxan-3-yl Propanoate]: in data set [1], the “Assay 1 (SGF) (% Remaining @ 1 hours)” value is recorded as “C (C: >75% of the tested compound remaining)”. Moreover, the “Assay 2 (SIF) (% @ Remaining 4 hours)” value in data set [2] is “A (A: <25% of the tested compound remaining)”.
For `CCC(=O)OC1OC[C@@H](OC(=O)CC)[C@H](OC(=O)CC)[C@H]1OC(=O)CC` (stereo partly drawn) [Compound 162, (3R,4S,5R)-3,4,5-tris(propanoyloxy)oxan-2-yl Propanoate] the same measures were “C (C: >75% of the tested compound remaining)” and “A (A: <25% of the tested compound remaining)”.
`O=C(CCc1c[nH]c2ccccc12)O[C@@H]1[C@H](OC(=O)CCc2c[nH]c3ccccc23)COC(O)[C@@H]1OC(=O)CCc1c[nH]c2ccccc12` (stereo partly drawn) [Compound 167, (3R,4R,5R)-6-hydroxy-4,5-bis({[3-(1H-indol-3-yl)propanoyl]oxy})oxan-3-yl 3-(1H-indol-3-yl)propanoate]: the “Assay 1 (SGF) (% Remaining @ 1 hours)” value in data set [1] is “C (C: >75% of the tested compound remaining)”. Further, the “Assay 2 (SIF) (% @ Remaining 4 hours)” value in data set [2] was “A (A: <25% of the tested compound remaining)”.

The record behind these values is US10953027B2, “Active agents and methods of their use for the treatment of metabolic disorders and nonalcoholic fatty liver disease” (Flagship Pioneering Innovations V, Inc., priority 2018, dated 2021).
